Experimental data as given in US20220363686A1 (AiCuris GmbH & Co. KG, priority 2018, published 2022).

Tests used:
HBV = experiment: Determination of HBV DNA from the supernatants of HepAD38 cells (anti-HBV activity); assay type: cell-based, hepatitis B virus; conditions: HBV DNA in HepAD38 supernatant, day 6, qPCR; read-out: Cell Activity
Procedure, shortened: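 EC50 derived by non-linear regression of relative HBV DNA copy numbers, measured by qPCR (plasmid standards) in day-6 filtered supernatants. Before this, HepAD38 cells were exposed to serial half-log compound dilutions without tetracycline, releasing viral expression; cultures kept at 37 °C, 5% CO2.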

HepAD38 cells = experiment: Cell viability assay (AlamarBlue); conditions: 0.3 μg/ml tetracycline, six days incubation, AlamarBlue
[1] = target: HBV core protein (C-terminal truncated core protein containing 149 amino acids of the N-terminal assembly domain) (UniProt P03146); experiment: Biochemical capsid assembly assay (fluorescence quenching); set-up: rows headed: Assembly Activity; other: BODIPY-FL labelled core protein, assembly started with NaCl, read after 6 min; conditions: read-out: Assembly Activity; BODIPY-FL labelled core protein, assembly started with NaCl, read after 6 min
Chain of HBV core protein (C-terminal truncated core protein containing 149 amino acids of the N-terminal assembly domain) (P03146 whole entry, the tested form may be a part): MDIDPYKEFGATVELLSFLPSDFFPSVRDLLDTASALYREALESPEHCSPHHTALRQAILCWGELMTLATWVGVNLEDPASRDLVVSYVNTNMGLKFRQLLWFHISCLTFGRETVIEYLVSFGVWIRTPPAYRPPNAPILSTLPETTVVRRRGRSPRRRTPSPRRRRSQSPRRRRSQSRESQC
Procedure, shortened: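 N-terminal assembly domain (residues 1–149) plus C-terminal Cys150, E. coli-expressed, BODIPY-FL-maleimide labelled, used at 1.0–2.0 μM in 50 mM HEPES pH 7.5 with 0.5% DMSO. Assembly started with NaCl ([…]); fluorescence quenching (ex 477/em 525 nm) read after 6 min. 8-point compound series; EC50 by non-linear regression.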

Work on `CC1Cn2ncc(C(=O)NC3(COC(F)F)CC3)c2CN1C(=O)c1cc2ccccc2[nH]1` (single isomer, unassigned) [Example 132, N-{1-[(difluoromethoxy)methyl]cyclopropyl}-5-(1H-indole-2-carbonyl)-6-methyl-4H,5H,6H,7H-pyrazolo[1,5-a]pyrazine-3-carboxamide] yielded an EC50 (HBV) of less than 1 µM, a CC50 (HepAD38 cells) greater than 10 µM and an IC50 [1] of less than 5 µM.

`CC1Cn2ncc(C(=O)N(C)C3CC3)c2CN1C(=O)c1cc2ccccc2[nH]1` (single isomer, unassigned) [Example 71, N-cyclopropyl-5-(1H-indole-2-carbonyl)-N,6-dimethyl-4H,5H,6H,7H-pyrazolo[1,5-a]pyrazine-3-carboxamide] showed an EC50 (HBV) of less than 1 µM, a CC50 (HepAD38 cells) greater than 10 µM and an IC50 [1] of less than 5 µM.

`COCC1(N(C)C(=O)c2cnn3c2CN(C(=O)c2cc4ccccc4[nH]2)C(C)C3)CC1` (single isomer, unassigned) [Example 70, 5-(1H-indole-2-carbonyl)-N-[1-(methoxymethyl)cyclopropyl]-N,6-dimethyl-4H,5H,6H,7H-pyrazolo[1,5-a]pyrazine-3-carboxamide] gave an EC50 (HBV) of less than 1 µM, a CC50 (HepAD38 cells) greater than 10 µM and an IC50 [1] of less than 5 µM.
